Assay results as given in article PMC8429728, “TNK1 is a ubiquitin-binding and 14-3-3-regulated kinase that can be targeted to block tumor growth” (Nature Communications, 2021).
Like-named read-outs stand apart in the source and are kept apart here.

Legend:
Experiment in all cases: biochemical
Design in all cases: Reaction Biology 371-kinase panel at Km ATP, per cent enzyme activity relative to DMSO, single dose in duplicate
[1] = target: ALK3/BMPR1A (Homo sapiens, UniProt P36894); details: duplicate measurements, Km ATP
Procedure, shortened: (§1)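 In vitro selectivity panel: 371 kinases, inhibitor at 300 nM; % activity vs DMSO; IC50 by variable-slope sigmoidal fit, bottom = 0.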

[2] = target: T1, DYRK4 (Homo sapiens, UniProt Q9NR20); details: duplicate measurements, Km ATP
T1 sequence (Q9NR20 1-520): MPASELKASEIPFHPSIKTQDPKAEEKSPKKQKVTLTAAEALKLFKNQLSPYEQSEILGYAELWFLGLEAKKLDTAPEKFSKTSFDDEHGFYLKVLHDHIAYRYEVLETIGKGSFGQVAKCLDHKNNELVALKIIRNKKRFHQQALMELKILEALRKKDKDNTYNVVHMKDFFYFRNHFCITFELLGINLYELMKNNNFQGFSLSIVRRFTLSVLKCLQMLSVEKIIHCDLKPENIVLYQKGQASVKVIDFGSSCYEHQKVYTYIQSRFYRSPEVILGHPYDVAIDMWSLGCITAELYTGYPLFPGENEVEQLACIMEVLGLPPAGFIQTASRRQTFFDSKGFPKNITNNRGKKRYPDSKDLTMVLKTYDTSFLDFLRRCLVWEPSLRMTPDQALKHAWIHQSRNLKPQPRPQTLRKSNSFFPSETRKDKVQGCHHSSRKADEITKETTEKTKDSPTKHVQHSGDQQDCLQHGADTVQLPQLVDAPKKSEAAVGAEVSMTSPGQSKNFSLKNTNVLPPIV
Procedure, shortened: as §1

[3] = target: ITK (Homo sapiens, UniProt Q08881); details: duplicate measurements, Km ATP
Procedure, shortened: as §1

[4] = target: T2, JNK2 (Homo sapiens, UniProt P45984); details: duplicate measurements, Km ATP
T2 construct: gene MAPK9
Procedure, shortened: as §1

[5] = target: LIMK1 (Homo sapiens, UniProt P53667); details: duplicate measurements, Km ATP; read-out: % Enzyme Activity (relative to DMSO controls) / TP-0005801 (0.3µM) / Data 1
Procedure, shortened: as §1

[6] = target: MAPKAPK3 (Homo sapiens, UniProt Q16644); details: duplicate measurements, Km ATP
Procedure, shortened: as §1

[7] = target: MSK1/RPS6KA5 (Homo sapiens, UniProt O75582); details: duplicate measurements, Km ATP
Procedure, shortened: as §1

[8] = target: MYO3A (Homo sapiens, UniProt Q8NEV4); details: duplicate measurements, Km ATP
Procedure, shortened: as §1

[9] = target: T3, P38g (Homo sapiens, UniProt P53778); details: duplicate measurements, Km ATP
T3 construct: gene MAPK12
Procedure, shortened: as §1

[10] = target: PDGFRa (Homo sapiens, UniProt P16234); details: duplicate measurements, Km ATP
Procedure, shortened: as §1

[11] = target: PDGFRb (Homo sapiens, UniProt P09619); details: duplicate measurements, Km ATP
Procedure, shortened: as §1

[12] = target: PHKg2 (Homo sapiens, UniProt P15735); details: duplicate measurements, Km ATP
Procedure, shortened: as §1

[13] = target: T4, PKCg (Homo sapiens, UniProt P05129); details: duplicate measurements, Km ATP
T4 construct: gene PRKCG
Procedure, shortened: as §1

[14] = target: STK38/NDR1 (Homo sapiens, UniProt Q15208); details: duplicate measurements, Km ATP
Procedure, shortened: as §1

[15] = target: TBK1 (Homo sapiens, UniProt Q9UHD2); details: duplicate measurements, Km ATP
Procedure, shortened: as §1

[16] = target: ULK2 (Homo sapiens, UniProt Q8IYT8); details: duplicate measurements, Km ATP
Procedure, shortened: as §1

[17] = target: WNK2 (Homo sapiens, UniProt Q9Y3S1); details: duplicate measurements, Km ATP
Procedure, shortened: as §1

[18] = read-out: % Enzyme Activity (relative to DMSO controls) / TP-0005801 (0.3µM) / Data 1
[19] = read-out: % Enzyme Activity (relative to DMSO controls) / TP-0005801 (0.3µM) / Data 2

T3 sequence (P53778 whole entry): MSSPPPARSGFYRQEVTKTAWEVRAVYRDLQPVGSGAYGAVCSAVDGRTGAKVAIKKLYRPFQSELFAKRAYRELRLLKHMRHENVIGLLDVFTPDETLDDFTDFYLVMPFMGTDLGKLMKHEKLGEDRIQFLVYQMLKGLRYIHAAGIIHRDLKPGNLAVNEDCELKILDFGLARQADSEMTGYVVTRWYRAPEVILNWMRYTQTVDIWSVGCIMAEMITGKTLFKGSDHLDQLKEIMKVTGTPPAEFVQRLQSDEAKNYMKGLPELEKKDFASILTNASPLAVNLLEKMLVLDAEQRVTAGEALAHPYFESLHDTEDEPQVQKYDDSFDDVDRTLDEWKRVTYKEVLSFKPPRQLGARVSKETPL
STK38/NDR1, sequence (Q15208 whole entry): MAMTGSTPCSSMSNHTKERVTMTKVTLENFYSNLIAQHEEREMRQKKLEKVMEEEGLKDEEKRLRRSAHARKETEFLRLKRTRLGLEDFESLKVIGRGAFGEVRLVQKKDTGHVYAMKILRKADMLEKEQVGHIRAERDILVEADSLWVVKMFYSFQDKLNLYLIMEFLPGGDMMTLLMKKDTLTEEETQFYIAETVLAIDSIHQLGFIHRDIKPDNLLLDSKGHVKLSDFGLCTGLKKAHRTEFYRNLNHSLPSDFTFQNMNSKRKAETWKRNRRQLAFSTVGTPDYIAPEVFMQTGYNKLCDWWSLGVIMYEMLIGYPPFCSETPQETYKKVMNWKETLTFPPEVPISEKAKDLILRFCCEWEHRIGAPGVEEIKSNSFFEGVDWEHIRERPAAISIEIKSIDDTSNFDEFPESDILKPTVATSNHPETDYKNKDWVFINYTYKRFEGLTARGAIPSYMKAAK
PHKg2, sequence (P15735 whole entry): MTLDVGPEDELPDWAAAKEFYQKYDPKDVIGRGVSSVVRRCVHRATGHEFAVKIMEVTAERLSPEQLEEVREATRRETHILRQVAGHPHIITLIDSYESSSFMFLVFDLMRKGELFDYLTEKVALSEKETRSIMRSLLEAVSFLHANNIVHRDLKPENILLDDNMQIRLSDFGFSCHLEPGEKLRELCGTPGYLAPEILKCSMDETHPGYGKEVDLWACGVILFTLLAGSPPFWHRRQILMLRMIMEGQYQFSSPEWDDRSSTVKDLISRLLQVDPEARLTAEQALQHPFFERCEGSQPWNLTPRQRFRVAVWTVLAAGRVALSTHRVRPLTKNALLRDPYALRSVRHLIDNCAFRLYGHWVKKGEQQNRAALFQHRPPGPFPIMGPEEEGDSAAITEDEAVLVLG
T2 sequence (P45984 whole entry): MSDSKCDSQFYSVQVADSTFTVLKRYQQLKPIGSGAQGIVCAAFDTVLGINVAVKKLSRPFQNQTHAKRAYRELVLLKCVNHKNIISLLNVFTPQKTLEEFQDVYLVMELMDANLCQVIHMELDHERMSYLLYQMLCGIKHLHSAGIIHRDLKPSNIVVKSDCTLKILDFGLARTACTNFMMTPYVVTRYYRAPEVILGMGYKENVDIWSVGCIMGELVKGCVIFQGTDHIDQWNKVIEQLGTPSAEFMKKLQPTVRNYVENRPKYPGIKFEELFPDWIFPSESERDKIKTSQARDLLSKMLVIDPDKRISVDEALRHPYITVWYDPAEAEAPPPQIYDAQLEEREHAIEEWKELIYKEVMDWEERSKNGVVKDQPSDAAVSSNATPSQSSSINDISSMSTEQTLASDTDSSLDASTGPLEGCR
ALK3/BMPR1A, sequence (P36894 whole entry): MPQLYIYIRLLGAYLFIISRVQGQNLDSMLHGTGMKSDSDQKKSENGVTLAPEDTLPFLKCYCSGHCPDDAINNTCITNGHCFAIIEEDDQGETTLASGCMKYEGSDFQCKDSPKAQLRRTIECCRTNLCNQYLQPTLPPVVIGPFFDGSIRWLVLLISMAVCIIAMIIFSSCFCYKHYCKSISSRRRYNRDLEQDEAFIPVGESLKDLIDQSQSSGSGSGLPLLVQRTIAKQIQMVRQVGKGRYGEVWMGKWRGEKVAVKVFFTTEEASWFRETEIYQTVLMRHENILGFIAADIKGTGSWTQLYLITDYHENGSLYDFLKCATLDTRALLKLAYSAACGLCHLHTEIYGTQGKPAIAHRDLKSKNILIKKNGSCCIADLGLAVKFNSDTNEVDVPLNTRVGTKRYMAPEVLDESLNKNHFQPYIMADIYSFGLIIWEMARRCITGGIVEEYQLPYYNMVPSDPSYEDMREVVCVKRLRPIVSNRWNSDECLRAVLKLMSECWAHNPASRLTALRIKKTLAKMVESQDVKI
PDGFRb, sequence (P09619 whole entry): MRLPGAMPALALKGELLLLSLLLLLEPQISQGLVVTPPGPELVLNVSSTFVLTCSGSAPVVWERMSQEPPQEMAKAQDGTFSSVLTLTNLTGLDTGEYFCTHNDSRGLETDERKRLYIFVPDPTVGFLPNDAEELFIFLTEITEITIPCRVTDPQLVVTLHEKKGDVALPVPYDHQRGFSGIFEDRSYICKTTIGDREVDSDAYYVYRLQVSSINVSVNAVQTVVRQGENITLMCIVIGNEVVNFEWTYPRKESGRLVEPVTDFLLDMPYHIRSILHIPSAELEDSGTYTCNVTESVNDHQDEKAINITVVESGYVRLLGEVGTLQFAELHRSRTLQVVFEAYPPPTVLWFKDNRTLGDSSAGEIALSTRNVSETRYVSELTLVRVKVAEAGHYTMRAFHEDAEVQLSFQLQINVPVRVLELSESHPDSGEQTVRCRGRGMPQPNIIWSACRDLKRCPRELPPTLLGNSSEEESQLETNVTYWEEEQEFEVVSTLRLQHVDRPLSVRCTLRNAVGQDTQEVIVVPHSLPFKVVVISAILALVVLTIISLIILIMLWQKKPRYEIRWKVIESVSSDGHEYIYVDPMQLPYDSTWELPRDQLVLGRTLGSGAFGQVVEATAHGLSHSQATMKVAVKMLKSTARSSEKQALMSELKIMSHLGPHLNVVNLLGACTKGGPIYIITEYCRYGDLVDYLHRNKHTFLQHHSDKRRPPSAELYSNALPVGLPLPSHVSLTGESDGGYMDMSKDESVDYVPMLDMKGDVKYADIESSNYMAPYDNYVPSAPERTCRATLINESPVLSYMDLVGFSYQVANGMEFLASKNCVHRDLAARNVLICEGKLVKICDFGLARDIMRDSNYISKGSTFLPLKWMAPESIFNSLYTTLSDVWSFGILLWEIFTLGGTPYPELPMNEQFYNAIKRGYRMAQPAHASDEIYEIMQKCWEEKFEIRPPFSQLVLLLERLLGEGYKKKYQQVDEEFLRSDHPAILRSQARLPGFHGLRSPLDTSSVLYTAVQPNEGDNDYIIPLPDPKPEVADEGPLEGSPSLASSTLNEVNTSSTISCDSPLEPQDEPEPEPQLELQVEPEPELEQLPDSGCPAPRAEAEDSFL
TBK1, sequence (Q9UHD2 whole entry): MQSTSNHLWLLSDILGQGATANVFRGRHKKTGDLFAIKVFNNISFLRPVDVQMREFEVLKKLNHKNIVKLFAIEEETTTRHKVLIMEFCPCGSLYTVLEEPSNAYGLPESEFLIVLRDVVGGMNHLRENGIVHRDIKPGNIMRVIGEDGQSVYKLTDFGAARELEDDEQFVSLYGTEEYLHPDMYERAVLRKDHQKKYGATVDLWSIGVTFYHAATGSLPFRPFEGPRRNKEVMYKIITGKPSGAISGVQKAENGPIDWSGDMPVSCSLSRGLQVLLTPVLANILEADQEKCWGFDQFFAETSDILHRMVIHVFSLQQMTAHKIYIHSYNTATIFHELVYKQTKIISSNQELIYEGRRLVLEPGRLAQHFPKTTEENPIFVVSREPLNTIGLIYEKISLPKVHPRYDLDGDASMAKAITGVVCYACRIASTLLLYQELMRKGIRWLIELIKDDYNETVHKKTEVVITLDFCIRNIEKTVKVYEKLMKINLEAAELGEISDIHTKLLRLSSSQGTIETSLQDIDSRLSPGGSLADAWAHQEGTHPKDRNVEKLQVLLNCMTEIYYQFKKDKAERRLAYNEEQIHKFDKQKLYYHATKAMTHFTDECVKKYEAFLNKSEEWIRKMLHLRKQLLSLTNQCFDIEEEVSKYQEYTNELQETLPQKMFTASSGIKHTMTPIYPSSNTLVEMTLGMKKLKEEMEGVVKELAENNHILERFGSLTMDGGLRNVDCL

remaining activity at 0.3 µM [1, 18]: 105% | remaining activity at 0.3 µM [1, 19]: 100% | remaining activity at 0.3 µM [2, 18]: 104% | remaining activity at 0.3 µM [2, 19]: 99.2% | remaining activity at 0.3 µM [3, 18]: 107% | remaining activity at 0.3 µM [3, 19]: 103% | remaining activity at 0.3 µM [4, 18]: 97% | remaining activity at 0.3 µM [4, 19]: 96.3% | remaining activity at 0.3 µM [5]: 104% | remaining activity at 0.3 µM [6, 18]: 104% | remaining activity at 0.3 µM [6, 19]: 103% | remaining activity at 0.3 µM [7, 18]: 127% | remaining activity at 0.3 µM [7, 19]: 123% | remaining activity at 0.3 µM [8, 18]: 69.8% | remaining activity at 0.3 µM [8, 19]: 66.3% | remaining activity at 0.3 µM [9, 18]: 104% | remaining activity at 0.3 µM [9, 19]: 102% | remaining activity at 0.3 µM [10, 18]: 84.6% | remaining activity at 0.3 µM [10, 19]: 84.5% | remaining activity at 0.3 µM [11, 18]: 64.4% | remaining activity at 0.3 µM [11, 19]: 64% | remaining activity at 0.3 µM [12, 18]: 72.4% | remaining activity at 0.3 µM [12, 19]: 71.3% | remaining activity at 0.3 µM [13, 18]: 115% | remaining activity at 0.3 µM [13, 19]: 107% | remaining activity at 0.3 µM [14, 18]: 38.8% | remaining activity at 0.3 µM [14, 19]: 38.7% | remaining activity at 0.3 µM [15, 18]: 97.8% | remaining activity at 0.3 µM [15, 19]: 96.4% | remaining activity at 0.3 µM [16, 18]: 86.5% | remaining activity at 0.3 µM [16, 19]: 82.4% | remaining activity at 0.3 µM [17, 18]: 96.6% | remaining activity at 0.3 µM [17, 19]: 93.9%
Structure (SMILES): COc1cc(N2CCN(C)CC2)c(C)cc1Nc1ncc(Br)c(Nc2cccnc2N(C)C)n1 [TP-5801]
